Source: US10167262B2, “Herbicidal substituted 3-arylpyrazoles” (FMC CORPORATION, priority 2014, dated 2019)

What was measured:
Type in all cases: in vivo
[1] = system: johnsongrass (Sorghum halepense); assay: Test C pre-/postemergence greenhouse test, plant response rating 0-100; conditions: Postemergence; for Plant response rating, Johnsongrass: scale 0 to 100
How it was run: (§1)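 Scores run from 0, no effect, to 100, complete control, assigned by eye after treated plants and controls spent 13 to 15 days in a greenhouse. Soil-applied treatment went onto freshly sown seed in loam and sand; foliar treatment hit seedlings at the 1- to 4-leaf stage.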

[2] = system: velvetleaf (Abutilon theophrasti); assay: as above; conditions: Postemergence; for Plant response rating, Velvetleaf: scale 0 to 100
How it was run: as §1

[3] = system: lambsquarters (Chenopodium album); assay: as above; conditions: Postemergence; for Plant response rating, Lambsquarters: scale 0 to 100
How it was run: as §1

[4] = system: morningglory (Ipomoea coccinea); assay: as above; conditions: Postemergence; for Plant response rating, Morningglory: scale 0 to 100
How it was run: as §1

[5] = system: morningglory (Ipomoea spp.); assay: Test A pre-/postemergence greenhouse herbicide test, visual injury rating 0-100
How it was run: (§2)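 Directed soil spray (pre) and foliar spray (post, 1–2 leaf) of solvent/surfactant-formulated compound; greenhouse ~10 d; visual injury 0–100 vs untreated controls.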

[6] = system: large (Lg) crabgrass (Digitaria sanguinalis); assay: as above
How it was run: as §2

[7] = system: velvetleaf (Abutilon theophrasti); assay: as above
How it was run: as §2

[8] = system: wheat (Triticum aestivum); assay: as above
How it was run: as §2

[9] = system: giant foxtail (Setaria faberii); assay: as above
How it was run: as §2

corn (Zea mays) = assay: as above
How it was run: as §2

[10] = system: pigweed (Amaranthus retroflexus); assay: as above
How it was run: as §2

[11] = system: barnyardgrass (Echinochloa crus-galli); assay: as above
How it was run: as §2

Fc1ccc(NN=C(c2ccccc2)c2c[nH]nc2-c2cc(Cl)cc(Cl)c2)cc1 [Compound 35]
60: Plant response rating (0 to 100), Velvetleaf ([2]; 62 g ai/ha)
70: Plant response rating, Velvetleaf ([2]; 250 g ai/ha) | Plant response rating, Velvetleaf ([2]; 500 g ai/ha)
5: Plant response rating, Morningglory ([4]; 250 g ai/ha) | Plant response rating, Morningglory ([4]; 500 g ai/ha)
65: Plant response rating (0 to 100), Velvetleaf ([2]; 125 g ai/ha)
100: Plant response rating, Lambsquarters ([3]; 250 g ai/ha) | Plant response rating, Lambsquarters ([3]; 500 g ai/ha) | Plant response rating (0 to 100 scale), Velvetleaf ([7]; Preemergence, 1000 g ai/ha) | Plant response rating (0 to 100 scale), Pigweed ([10]; Preemergence, 1000 g ai/ha)
0: Plant response rating (0 to 100), Johnsongrass ([1]; 62 g ai/ha) | Plant response rating (0 to 100), Johnsongrass ([1]; 125 g ai/ha) | Plant response rating, Johnsongrass ([1]; 250 g ai/ha) | Plant response rating, Johnsongrass ([1]; 500 g ai/ha) | Plant response rating (0 to 100), Morningglory ([4]; 62 g ai/ha) | Plant response rating (0 to 100), Morningglory ([4]; 125 g ai/ha) | Plant response rating (0 to 100 scale), Morningglory ([5]; Postemergence, 1000 g ai/ha) | Plant response rating (0 to 100 scale), Morningglory ([5]; Preemergence, 1000 g ai/ha) | Plant response rating (0 to 100 scale), Crabgrass, Large ([6]; Postemergence, 1000 g ai/ha) | Plant response rating (0 to 100 scale), Crabgrass, Large ([6]; Preemergence, 1000 g ai/ha) | Plant response rating (0 to 100 scale), Wheat ([8]; Postemergence, 1000 g ai/ha) | Plant response rating (0 to 100 scale), Wheat ([8]; Preemergence, 1000 g ai/ha) | Plant response rating (0 to 100 scale), Foxtail, Giant ([9]; Postemergence, 1000 g ai/ha) | Plant response rating (0 to 100 scale), Foxtail, Giant ([9]; Preemergence, 1000 g ai/ha) | Plant response rating (0 to 100 scale), Corn (corn (Zea mays); Postemergence, 1000 g ai/ha) | Plant response rating (0 to 100 scale), Corn (corn (Zea mays); Preemergence, 1000 g ai/ha) | Plant response rating (0 to 100 scale), Barnyardgrass ([11]; Postemergence, 1000 g ai/ha) | Plant response rating (0 to 100 scale), Barnyardgrass ([11]; Preemergence, 1000 g ai/ha)
98: Plant response rating (0 to 100), Lambsquarters ([3]; 62 g ai/ha) | Plant response rating (0 to 100), Lambsquarters ([3]; 125 g ai/ha)
90: Plant response rating (0 to 100 scale), Velvetleaf ([7]; Postemergence, 1000 g ai/ha) | Plant response rating (0 to 100 scale), Pigweed ([10]; Postemergence, 1000 g ai/ha)

CCn1cc(C(=NN2CCCC2)c2ccccc2)c(-c2cc(Cl)cc(Cl)c2)n1 [Compound 37]
45: Plant response rating (0 to 100), Lambsquarters ([3]; 62 g ai/ha)
100: Plant response rating (0 to 100 scale), Velvetleaf ([7]; Postemergence, 500 g ai/ha) | Plant response rating (0 to 100 scale), Pigweed ([10]; Postemergence, 500 g ai/ha)
65: Plant response rating, Lambsquarters ([3]; 250 g ai/ha)
75: Plant response rating (0 to 100), Velvetleaf ([2]; 62 g ai/ha)
40: Plant response rating (0 to 100 scale), Velvetleaf ([7]; Preemergence, 500 g ai/ha) | Pigweed plant response rating (0 = no effect, 100 = complete control) ([10]; Preemergence, 125 g ai/ha)
98: Plant response rating, Velvetleaf ([2]; 250 g ai/ha)
80: Plant response rating (0 to 100), Velvetleaf ([2]; 125 g ai/ha) | Plant response rating (0 to 100 scale), Velvetleaf ([7]; Postemergence, 125 g ai/ha) | Plant response rating (0 to 100 scale), Pigweed ([10]; Postemergence, 125 g ai/ha)
0: Plant response rating (0 to 100), Johnsongrass ([1]; 62 g ai/ha) | Plant response rating (0 to 100), Johnsongrass ([1]; 125 g ai/ha) | Plant response rating, Johnsongrass ([1]; 250 g ai/ha) | Plant response rating (0 to 100), Morningglory ([4]; 62 g ai/ha) | Plant response rating (0 to 100), Morningglory ([4]; 125 g ai/ha) | Plant response rating, Morningglory ([4]; 250 g ai/ha) | Plant response rating (0 to 100 scale), Morningglory ([5]; Postemergence, 125 g ai/ha) | Plant response rating (0 to 100 scale), Morningglory ([5]; Postemergence, 500 g ai/ha) | Morningglory plant response rating (0 = no effect, 100 = complete control) ([5]; Preemergence, 125 g ai/ha) | Plant response rating (0 to 100 scale), Morningglory ([5]; Preemergence, 500 g ai/ha) | Plant response rating (0 to 100 scale), Crabgrass, Large ([6]; Postemergence, 125 g ai/ha) | Plant response rating (0 to 100 scale), Crabgrass, Large ([6]; Postemergence, 500 g ai/ha) | Crabgrass, Large plant response rating (0 = no effect, 100 = complete control) ([6]; Preemergence, 125 g ai/ha) | Plant response rating (0 to 100 scale), Crabgrass, Large ([6]; Preemergence, 500 g ai/ha) | Velvetleaf plant response rating (0 = no effect, 100 = complete control) ([7]; Preemergence, 125 g ai/ha) | Plant response rating (0 to 100 scale), Wheat ([8]; Postemergence, 125 g ai/ha) | Plant response rating (0 to 100 scale), Wheat ([8]; Postemergence, 500 g ai/ha) | Wheat plant response rating (0 = no effect, 100 = complete control) ([8]; Preemergence, 125 g ai/ha) | Plant response rating (0 to 100 scale), Wheat ([8]; Preemergence, 500 g ai/ha) | Plant response rating (0 to 100 scale), Foxtail, Giant ([9]; Postemergence, 125 g ai/ha) | Plant response rating (0 to 100 scale), Foxtail, Giant ([9]; Postemergence, 500 g ai/ha) | Foxtail, Giant plant response rating (0 = no effect, 100 = complete control) ([9]; Preemergence, 125 g ai/ha) | Plant response rating (0 to 100 scale), Foxtail, Giant ([9]; Preemergence, 500 g ai/ha) | Plant response rating (0 to 100 scale), Corn (corn (Zea mays); Postemergence, 125 g ai/ha) | Plant response rating (0 to 100 scale), Corn (corn (Zea mays); Postemergence, 500 g ai/ha) | Corn plant response rating (0 = no effect, 100 = complete control) (corn (Zea mays); Preemergence, 125 g ai/ha) | Plant response rating (0 to 100 scale), Corn (corn (Zea mays); Preemergence, 500 g ai/ha) | Plant response rating (0 to 100 scale), Barnyardgrass ([11]; Postemergence, 125 g ai/ha) | Plant response rating (0 to 100 scale), Barnyardgrass ([11]; Postemergence, 500 g ai/ha) | Barnyardgrass plant response rating (0 = no effect, 100 = complete control) ([11]; Preemergence, 125 g ai/ha) | Plant response rating (0 to 100 scale), Barnyardgrass ([11]; Preemergence, 500 g ai/ha)
55: Plant response rating (0 to 100), Lambsquarters ([3]; 125 g ai/ha)
90: Plant response rating (0 to 100 scale), Pigweed ([10]; Preemergence, 500 g ai/ha)
